Reference: publication PMC6960228, “Ethoxysanguinarine, a Novel Direct Activator of AMP-Activated Protein Kinase, Induces Autophagy and Exhibits Therapeutic Potential in Breast Cancer Cells” (Frontiers in Pharmacology, 2020)

How the values were obtained:
[1] = system: LC3 redistribution to autophagosomes in BC cells; assay: GFP-LC3 autophagy assay (confocal microscopy); type: cell-based, human; settings: pQCXIP-GFP-LC3 transfected cells, Eth 24 h
Description: The cells were transfected with pQCXIP-GFP-LC3 plasmid using the Lipofectamine 3000 (Invitrogen; Thermo Fisher Scientific, Inc.) according to the recommended protocol by the manufacturer and then fixed in 4% paraformaldehyde. The percentage of cells with fluorescent dots representing GFP-LC3 translocation was counted. For visualization of cell nucleus, DAPI was used. Sections were observed using an Olympus laser scanning confocal microscope with imaging software (Olympus Fluoview FV-1000, Tokyo, Japan).
Figure 2 Eth induces autophagy in BC cells. (A): MCF-7, MDA-MB-231, or MDA-MB-436 cells were treated with increasing concentrations of Eth for 24 h. Western blot was performed using antibodies indicated. GAPDH was used as the loading control. (B): MCF-7 (MDA-MB-231 or MDA-MB-436) cells were treated with 2.4 µM (2.0 µM or 2.0 µM) Eth for the indicated times, and cell lysates were subjected to western blot assay. (C): MCF-7, MDA-MB-231, or MDA-MB-436 cells transfected with pQCXIP-GFP-LC3 plasmid were treated with increasing concentrations of Eth for 24 h, and assessed by immunoﬂuorescence analyses. Scale bar = 20 µm. (D): MDA-MB-231 or MDA-MB-436 cells transfected with pQCXIP-GFP-LC3 plasmid were treated with Eth (2.0 µM) and/or 3-MA (1 mM) for 24 h, and assessed by immunoﬂuorescence analyses. Scale bar = 20 µm. […] (F): MCF-7, MDA-MB-231, or MDA-MB-436 cells were treated with Eth (3.5 µM, 3.0 µM, or 3.0 µM) and/or 3-MA (1 mM) for 24 h and analyzed by MTT assay. (G): MCF-7, MDA-MB-231, or MDA-MB-436 cells were treated with Eth (2.4 µM, 2.0 µM, or 2.0 µM) and/or 3-MA (1 mM) for 24 h, and western blot was performed using antibodies indicated. *P < 0.05.
Figure 3 Eth induces autophagy through the AMPK/mTORC1 signaling. […] (D): MDA-MB-231 or MDA-MB-436 cells transfected with pQCXIP-GFP-LC3 plasmid were treated with Eth (2.0 µM) and/or CC (25 µM) for 24 h, and assessed by immunoﬂuorescence analyses. […] (G): MDA-MB-231 or MDA-MB-436 cells transfected with pQCXIP-GFP-LC3 plasmid were treated with Eth (1.0 µM or 1.6 µM) and/or Met (10 mM) for 24 h, and assessed by immunoﬂuorescence analyses. […]

AMPKα = assay: Streptavidin agarose affinity assay; type: binding, human; settings: Bio-Eth (4 μM) with or without Eth (12 μM), 3 h
Description: Cell pellets were lysed and the supernatant collection was incubated with indicated antibodies overnight at 4°C, after which protein A/G Plus beads (Santa Cruz Biotechnology) were added and incubated at 4°C for 4 h. The beads were washed 4 times in NETN buffer (1% NP-40, 2 mM EDTA, 40 mM Tris-HCl, 137 mM NaCl, pH 7.4), resuspended in SDS-PAGE loading buffer and boiled for 5 min. For streptavidin agarose affinity assay, cells upon Bio-Eth were lysed; the lysates were incubated with streptavidin agarose, washed and boiled in SDS-PAGE loading buffer. […] Western blot assays were performed.
Figure 4 Eth is a direct activator of AMPK. (A): MCF-7, MDA-MB-231, or MDA-MB-436 cells were treated with increasing concentrations of Eth for 24 h, and AMPK activity assay was performed. (B): The binding mode of Eth docked into AMPK. (C): The binding mode of Eth docked into AMPK. α subunit is green, β subunit is cyan, γ subunit is magenta and Eth is gold. (D): Details of the binding site of Eth in the ADaM site of AMPK. The main residues involved in drug interactions are shown as labeled green sticks. α subunit is green, β subunit is cyan. The pSER-108 was shown in stick and colored by gold. (E) The interaction pattern of Eth with the residues. […] (H): Viability of MCF-7, MDA-MB-231 or MDA-MB-436 cells exposed to Biotin-Eth as determined by MTT assay. […]

Question: With `CCOC1c2c(ccc3c2OCO3)-c2ccc3cc4c(cc3c2N1C)OCO4` (centres unmarked) [Eth, Ethoxysanguinarine] as the compound, how does the GFP-LC3 staining pattern [1] read?
Answer: Its GFP-LC3 staining pattern is “speckled fluorescent staining pattern”.

Question: What about the “binding of Bio-Eth to AMPKα in presence of unlabeled Eth” value (AMPKα) of the same compound?
Answer: The value was “significantly attenuated by unlabeled Eth”.
